Measurements from patent US10105380B2, “Glycoclusters and their pharmaceutical use as antibacterials” (priority 2013, dated 2018).
In brackets after ≈: the same amount, converted by molar mass. Read-outs that look alike come from different tables or passages of the source.

What was measured:
[1] = biological target: T1, PA-IL (Pseudomonas aeruginosa, UniProt Q05097); assay: Surface Plasmon Resonance (SPR) inhibition; format: binding
Description: (§1) The binding of PA-IL to galactoclusters was probed as the ability of the clusters to inhibit the binding of PA-IL to rabbit erythrocytes (Hemagglutination inhibition assay, HIA) or to surface bound galactosyl modified polyacrylamide either by Surface Plasmon Resonance (SPR), Enzyme Linked Assay (ELLA) Inhibition was measured with competitive assays. In HIA experiments, the minimal inhibitory concentration (MIC) is the minimal concentration of galactocluster that inhibit the hemagglutination of rabbit erythrocytes in presence of the lectin. The lower the MIC the highest is the binding of the galactocluster to the lectin. SPR and ELLA were used to determine the IC50 value. […] The lower the IC50 value as determined by SPR (^SPRIC50) and ELLA (^ELLAIC50), the higher is the binding of PA-IL to the galactocluster.
SPR inhibition experiments were performed using a Biacore 3000 instrument at 25° C. Measurements were carried out on two channels with two immobilized sugars: α-L-fucose (channel 1) and α-D-galactose (channel 2). Immobilization of sugars was performed at 25° C. using running buffer (HBS) at […]. Immobilization on each channel (CM5 Chip) was performed independently as follows. First, the channel was activated by injecting a fresh mixture of EDC/NHS (35 μL, 420 s). Then a solution of streptavidin ([…] in 0.1 mM AcONa pH 5 buffer) was injected (50 μL, 600 s). The remaining reactive species were quenched by injecting ethanolamine (1M, 35 μL, 420 s) into the solution. Finally, a solution of the desired biotinylated-polyacrylamide-sugar (lectinity, […]) was coated onto the surface (50 μL, 600 s) through streptavidin-biotin interaction. […] Inhibition studies consisted of the injection (150 μL, 10 μL·min^−1, dissociation 120 s) of incubated (>1 h, RT) mixtures of PAIL ([…]) and various concentrations of inhibitor (twofold cascade dilutions). […] The CM5 chip was fully regenerated by successive injections of d-galactose (2×30 μL, 100 mm in running buffer). Binding was measured as RU over time after blank subtraction, and data were then evaluated using the BIAevaluation Software version 4.1. For IC50 evaluation, the response (Req-fitted) was considered to be the amount of lectin bound to the carbohydrate-coated surface at equilibrium in the presence of a defined concentration of inhibitor. Inhibition curves were obtained by plotting the percentage of inhibition against the inhibitor concentration (on a logarithmic scale) by using Origin 7.0 software (OriginLab Corp.), and IC50 values were extracted from sigmoidal fit of the inhibition curve.
Microtiter plates were modified with PAA-galactose. […] The lowest the IC50 as determined the strongest is the binding of the studied molecule to PA-IL. […]

[2] = biological target: T1, PA-IL; assay: Enzyme Linked Lectin Assay (ELLA), PAA-galactose coated plates; format: binding
Description: as §1
96-Well microtiter plates (NuncMaxisorb) were coated with α-PAA-Gal(PAA=polyacrylamide) for PA-IL (Lectinity Holding, Inc.): 100 μL of 5 μg·mL^−1 in carbonate buffer, pH 9.6 for 1 h at 37° C., then blocking at 37° C. for 1 h with 100 μL per well of 3% (w/v) bovine serum albumin (BSA) in phosphate buffer solution (PBS). Lectin solutions (75 μL) were diluted (1:2) starting from 30 μg·mL^−1. After 1 h incubation at 37° C. and three washes with T-PBS (PBS that contained 0.05% Tween 20), horseradish peroxidase (HRP)-streptavidin conjugate (100 μL; dilution 2:8000; Boehringer-Mannheim) was added and left for 1 h at 37° C. Coloration was developed by using 100 μL per well of 0.05% phosphate/citrate buffer that contained o-phenylenediaminedihydrochloride ([…]) and urea hydrogen peroxide (0.4 mg·mL^−1) (OPD kit, Sigma-Aldrich) for 15 min and stopped with sulfuric acid (50 μL, 30%). Absorbance was then read at 490 nm using a microtiter plate reader (BioRad 680). The concentration of biotinylatedlectins was determined by plotting the relative absorbance versus lectin concentration. The concentration that led to the highest response in the linear area was selected as the standard lectin concentration for the subsequent inhibition experiments.
Microtiter plates were modified with PAA-galactose. Slides were incubated with increasing concentration of galactosylated ligands. […] The lowest the IC50 as determined the strongest is the binding of the studied molecule to PA-IL. ELLA: This IC50 will be referred here after ^ELLAIC50. SPR: This IC50 will be referred here after ^SPRIC50.

[3] = biological target: T1, PA-IL; assay: Hemagglutination inhibition assay (HIA), rabbit erythrocytes; format: cell-based; conditions: for MIC: minimal inhibitory concentration of hemagglutination, PA-IL 3 μM; for βAr: ratio of MIC of Gal-OArNO2 over MIC of the molecule; for βMe: ratio of MIC of Gal-OMe over MIC of the molecule
Description: as §1
Hemagglutination inhibition assays (HIA) were performed in U-shaped 96-well microtitre plates. Rabbit erythrocytes were purchased from Biomérieux and used without further washing. Erythrocytes were diluted to a 8% solution in NaCl (100 mM). PA-IL solutions of 3 μM were prepared in TRIS-HCl 20 mM (TRIS=tris(hydroxymethyl)aminomethane), NaCl 100 mM, and CaCl2 100 mM. The hemagglutination unit (HU) was first obtained by addition of the 4% erythrocyte solution (50 μL) to aliquots (50 μL) of sequential (twice) lectin dilutions. The mixture was incubated at 25° C. for 30 min. The HU was measured as the minimum lectin concentration required to observe hemagglutination. For the following lectin-inhibition assays, lectin concentrations of 4 HU were used. […] Subsequent inhibition assays were then carried out by the addition of lectin solution (25 μL, at the required concentration) to sequential dilutions (50 μL) of glycoclusters, monomer molecules, and controls. These solutions were incubated at 37° C. for 30 min, then 8% erythrocyte solution (25 μL) was added, followed by an additional incubation at 37° C. for 1 h. The minimum inhibitory concentration for each molecule was determined for each duplicate.

[4] = biological target: T1, PA-IL; format: binding; conditions: potency in respect with GalOMe (ITC Kd)
Description: Recombinant lyophilized PA-IL was dissolved in buffer (0.1 M TRIS-HCl, 6 μM CaCl2, pH 7.5) and degassed. […] ITC was performed using a VP-ITC MicroCalorimeter from MicroCal Incorporated. PA-IL was placed into the1.4478 mL sample cell, at 25° C. Titration was performed with 10 μL injections of carbohydrate ligands every 300 s. Data were fitted using the “one-site model” using MicroCal Origin 7 software according to standard procedures. Fitted data yielded the stoichiometry (n), the association constant (Ka), and the enthalpy of binding (ΔH). Other thermodynamic parameters (i.e., changes in free energy ΔG and entropy ΔS) were calculated from the equation ΔG=ΔH−TΔS=−RTlnKa in which T is the absolute temperature and R=8.314 J·mol^−1·K^−1. Two or three independent titrations were performed for each ligand tested.

[5] = biological target: T1, PA-IL; format: binding; conditions: for Potency vs EG3-O-Gal: ratio of IC50Lac to mono EG3-O-galactose (entry 1); for Potency vs AcNPhe-O-Gal: ratio of IC50Lac to mono-aromatic galactose 31 (entry 2); for β: Table 6, relative potency vs monovalent ligand 31
Description: IC50 Determination with “on Chip” Biological Recognition
Lectin PA-IL (0.12 μM final concentration), BSA (2% final concentration) and CaCl2 (1 μg/mL final concentration) was diluted in PBS1× (pH=7.4). In each micro tube was added the inhibitor lactose at the desired final concentration (0; 1.10^−5; 1.10^−4; 5.10^−4; 1.10^−3; 5.10^−3; 1.10^−2; 5.10^−2; 0.1; 1; 5; 10; 50; 10^2; 5.10^2; 10^3; 5.10^3; 10^4; 10^5; 3.10^5).
2 μL of each solution were deposited in the corresponding microwells and the slide was incubated at 37° C. in a water vapor saturated chamber for 3 h. The washing steps are: PBS-Tween0.2% 5 min at 4° C., then briefly in deionized water and dried by centrifugation.
Slide was scanned at 532 nm then at 635 nm with the Microarray scanner, GenePix 4100A software package (Axon Instruments; λex 532/635 nm and λem 575/670 nm). The fluorescence signal of each conjugate was determined as the average of the mean fluorescence signal of sixty-four spots.
IC50 values were determined using “BioDataFit 1.02 program”. The model chosen was “Sigmoidal”: Y=a+(b−a)/[1+10^(x−c)]
with a=FImin, b=FImax, x=[…] and c=log(IC50). FImin/max is the minimum/maximum Alexa-647 fluorescence signal observed for a galactomimetic.
So the IC50 value was called IC50Lac.

[6] = biological target: T1, PA-IL; assay: Kd determination on DDI microarray (Langmuir isotherm, Scatchard plot); format: binding
Description: The methodologies for Kd and IC50 value determination have been previously reported (Gerland, B. et al., (2012) Bioconjugate Chem. 23, 1534-1547; Zhang, J. et al., (2009) Chem. Comm., 6795-6797; Zhang, J. et al., (2009) Biosens. Bioelectron. 24, 2515-2521).
CaCl2 (1 μg/mL final concentration) was added. PA-IL at the desired final concentration was then added. 2 μL of each solution (corresponding to the desired PA-IL concentration) were poured in the corresponding microwells. The slide was incubated (3 h, 37° C.) in a water vapor saturated chamber and finally washed in PBS-Tween 20 (0.02%, 5 min, 4° C.) and dried. A Microarray scanner, GenePix 4100A software package (Axon Instruments; λex 532/635 nm and λem 575/670 nm) was used for fluorescent imaging of both fluorophore (Cy3 and Alexa 647). The average of the mean fluorescence signal was calculated from eight spots. The resulting Langmuir Isotherms were linearised using Scatchard plot to give the Kd values at the ordonnate intercept.

[7] = biological target: T1, PA-IL; assay: DDI glycoarray, direct fluorescence scanning with Alexa647-PA-IL; format: binding; conditions: result in words
[8] = IC50 of Gal-ArNO2 over IC50 of the molecule
[9] = IC50 of Gal-OMe over IC50 of the molecule
[10] = DNA-tagged galactoclusters G1-G24 on glycoarray, read-out: IC50
[11] = DNA-tagged galactoclusters G1-G24 on glycoarray
[12] = lactose concentration required to displace 50% of PA-IL from the glycocluster, higher = better binding, read-out: IC50Lac
[13] = text b577, microarray, Langmuir isotherm

T1 sequence (Q05097 2-122): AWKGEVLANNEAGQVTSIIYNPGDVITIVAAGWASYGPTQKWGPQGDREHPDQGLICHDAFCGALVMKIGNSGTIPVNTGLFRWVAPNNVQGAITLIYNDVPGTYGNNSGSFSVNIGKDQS

Compound: O=[N+]([O-])c1ccc(O[C@@H]2O[C@H](CO)[C@H](O)[C@H](O)[C@H]2O)cc1 [Gal-ArNO2, 1-O-p-nitrophenyl-β-D-galactoside]
- IC50 [1]: 6.7 µM
- SPR βAr [1, 8]: 1.0
- SPR βMe [1, 9]: 7.3
- IC50 [2]: 33 µM
- ELLA βAr [2, 8]: 1.0
- ELLA βMe [2, 9]: 5.5
- MIC [3]: 2.0 mM (≈ 603 µg/mL)
- βAr [3]: 1.0
- βMe [3]: 8.0

Compound: CO[C@@H]1O[C@H](CO)[C@H](O)[C@H](O)[C@H]1O [Gal-OMe, 1-O-Methyl-β-D-galactoside]
- βMe [4]: 1
- MIC [3]: 16 mM (≈ 3110 µg/mL)
- βAr [3]: 0.13
- βMe [3]: 1.0

Compound: Man(EG2MTzAcNPhe-CH2-SGal)4 [G13]
- IC50 [5, 10]: 12000 µM
- Kd [6, 11]: 0.085 µM

Compound: Man(EG2MTzproNCOBisphe-OGal)4 [G17]
- Kd [6, 11]: 0.02 µM

Compound: Man(EG2MTzproNCONapht-OGal)4 [G21]
- Kd [6, 11]: 0.014 µM

Compound: Man(EG3MTzAcNPh-SGal)4 [G11]
- IC50 [5, 10]: 63900 µM
- Kd [6, 11]: 0.049 µM

Compound: Man(EG3MTzAcNPhe-CH2-Gal)4 [G7]
- IC50 [5, 10]: 9100 µM
- Kd [6, 11]: 0.085 µM

Compound: Man(EG3MTzAcNPhe-CH2-SGal)4 [G15]
- IC50 [5, 10]: 13300 µM
- Kd [6, 11]: 0.076 µM

Compound: Man(EG3MTzproNCOBisphe-OGal)4 [G19]
- IC50 [5, 10]: 68900 µM
- Kd [6, 11]: 0.046 µM

Compound: Man(EG3MTzproNCONapht-OGal)4 [G23]
- IC50 [5, 10]: 68000 µM
- Kd [6, 11]: 0.048 µM

Compound: Man(HexTzM-Gal)4 [compound 18]
- IC50 [5, 12]: 107 µM
- Potency vs EG3-O-Gal [5]: 21
- Potency vs AcNPhe-O-Gal [5]: 6.7
- binding to PA-IL on microarray [7]: high binding

Compound: Man(POEG2MTzAcNPhe-O-Gal)4 [compound 32]
- IC50 ([5]; Table 6, DNA-galactomimetics, lactose as inhibitor, read-out: microarray IC50Lac): 4220 µM
- β [5]: 264
- IC50 [5, 12]: 4220 µM
- Potency vs EG3-O-Gal [5]: 844
- Potency vs AcNPhe-O-Gal [5]: 264
- Kd [6, 13]: 0.083 µM

Compound: Man(POEG2MTzEG3-Gal)4 [compound 36]
- IC50 [5, 12]: 24 µM
- Potency vs EG3-O-Gal [5]: 4.8
- Potency vs AcNPhe-O-Gal [5]: 1.5

Compound: Man(POProTzAcNPhe-O-Gal)4 [17d]
- β [5]: 177
- Potency vs EG3-O-Gal [5]: 565
- Potency vs AcNPhe-O-Gal [5]: 177
- binding to PA-IL on microarray [7]: high binding
- Kd [6, 13]: 0.196 µM
